According to patent publication US20210332024A1, “MODULATORS OF PIN1 ACTIVITY AND USES THEREOF” (Yeda Research and Development Co. Ltd., priority 2019, published 2021):
Values joined by “and” are separate entries in the source; they are usually repeats but may differ in a detail not shown here. Equal entries are not always repeated. Where two headings read alike, the source gives them in different places.

How the values were obtained:
[1] = target: T1, GST-Pin1 (Homo sapiens, UniProt Q13526); assay: Pin1 substrate activity assay (chymotrypsin-coupled PPIase assay); format: biochemical; conditions: pre-incubation 12 hours at 4° C.
T1 sequence (Q13526 whole entry): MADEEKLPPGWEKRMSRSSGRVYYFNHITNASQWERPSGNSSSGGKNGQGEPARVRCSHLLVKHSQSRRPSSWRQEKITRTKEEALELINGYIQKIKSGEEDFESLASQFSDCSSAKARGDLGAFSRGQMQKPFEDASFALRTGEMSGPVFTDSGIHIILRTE
Procedure: Inhibition of Pin1 isomerase activity was determined using the chymotrypsin-coupled PPIase assay, using GST-Pin1 and Suc-Ala-pSer-Pro-Phe-pNA (SEQ ID NO: 2) peptide substrate ([…]), according to procedures described by Yaffe [Science 1997, 278:1957-1960]. GST-Pin1 was pre-incubated with the indicated concentrations of compound for 12 hours at 4° C. in buffer containing 35 mM HEPES (pH 7.8), 0.2 mM DTT, and 0.1 mg/ml BSA (bovine serum albumin). Immediately before the assay was started, chymotrypsin (final concentration of 6 mg/ml), followed by the peptide substrate (Suc-Ala-pSer-Pro-Phe-pNA (SEQ ID NO: 2) peptide substrate, final concentration […]) was added. The apparent Ki value (under the tested conditions) obtained from the PPIase assay was derived from the Cheng-Prusoff equation: […]
wherein Km is the Michaelis constant for the used substrate, S is the initial concentration of the substrate in the assay, and IC50 is the half-minimal inhibitory concentration of the inhibitor.
(§1) Covalent labeling of Pin1 was confirmed to translate into enzyme inhibition via a fluorescence polarization (FP) competition assay using a FITC-labeled substrate mimetic peptide inhibitor, as well as a chymotrypsin-coupled PPIase assay, using procedures described in Wei et al. [Nat Med 2015, 21:457-466].

[2] = target: T1, GST-Pin1; assay: Fluorescence polarization (FP) competition assay; format: binding
Procedure: Binding affinity to Pin1 was determined using a fluorescence polarization assay to assess competition with an N-terminal fluorescein-labeled peptide (Bth-D-phosThr-Pip-Nal), which was obtained from JPT Peptide Technologies and Proteintech Group. The indicated concentrations of candidate compound were pre-incubated for 12 hours at 4° C. with a solution containing 250 nM glutathione S-transferase (GST)-Pin1, 5 nM of fluorescein-labeled peptide probe, 10 μg/ml bovine serum albumin, 0.01% Tween-20 and 1 mM DTT (dithiothreitol) in a buffer of 10 mM HEPES, 10 mM NaCl and 1% glycerol (pH 7.4). Measurements of FP were performed in black 384-well plates (Corning) using an EnVision™ reader. Apparent Ki values (under the tested conditions) obtained from the FP assay results were derived from the Kenakin Ki equation:
Kenakin Ki=(Lb)(EC50)(Kd)/(Lo)(Ro)+Lb(Ro−Lo+Lb−Kd)
Sittampalam G. S. et al., Eli Lilly & Company and the National Center for Advancing Translational Sciences, 2004].
as §1
The fluorescent polarization assay was performed in a dose-dependent and time-dependent manner, in order to further characterize the kinetic parameters of Pin1-3 binding to Pin1.

[3] = Pharmacokinetics, intravenous administration; format: in vivo, Male C57Bl/6J mice
Procedure: Male C57Bl/6J mice received Pin1-3 intravenously (as a 0.2 mg/ml solution in 5/5/90 NMP/Solutol/saline) or orally (as a 1 mg/ml solution in 5/5/90 NMP/Solutol/saline). The intravenous dosage was 2 mg/kg and the oral dosage was 10 mg/kg.

[4] = system: PC3 prostate cancer cells; assay: Prolonged-treatment cell growth, PC3; format: cell-based; conditions: PC3, 1 or 2.5 μM
Procedure: (§2) The ability of Pin1-3 treatment to induce more pronounced anti-proliferative effects after prolonged treatment (6-8 days) was then assessed. In order to ensure that target engagement was maintained for the duration of the experiment, Pin1-3 was replenished in fresh media every 48 hours.

[5] = Metabolic stability in hepatic microsomes; format: in vitro ADME; conditions: liver microsomes; mouse hepatic microsomes
[6] = system: Pin1-knockout 8988T pancreatic cancer cells; assay: Prolonged-treatment cell growth, Pin1-knockout 8988T; format: cell-based; conditions: 1 μM
Procedure: as §2
The effect of Pin1-binding compounds on 8988T pancreatic adenocarcinoma cells was assessed by incubating cells with 1 μM Pin1-3, and evaluating cell growth relative to cells incubated with vehicle (DMSO) alone. In order to confirm that the effect of Pin1-3 is mediated by Pin1, the experiment was repeated using Pin1 knockout cells.

[7] = system: KPC mouse derived tumor cells; assay: KPC orthotopic transplantation mouse model; format: in vivo, mice; conditions: IP 20 or 40 mg/kg every day
Procedure: 10^6 KPC (KrasLSL.G12D/+; p53R172H/+; PdxCretg/+) mouse derived tumor cells were transplanted into B6 mice pancreas (orthotopic transplantation). After 1 week of the transplantation, treatment of mice with Pin1-3 began. Mice were treated (IP) with Pin1-3 diluted solution (as a control), or 20 or 40 mg/kg every day. Tumor size was measured, and when the tumor size in control group reached 2 cm, mice were sacrificed to collect tumor tissue (n=4), and Kaplan-Meier survival analysis (n=8) was performed.

[8] = intravenous 2 mg/kg, individual mice No. 1-3, 2 mg/kg
[9] = male, C57Bl/6J, mouse, in vivo, iv, 2 mg/kg, Avg. of 3 mice
[10] = male, C57Bl/6J, mouse, in vivo, iv, 2 mg/kg, individual mice No. 1-3

CC(C)(C)CN(C(=O)CCl)C1CCS(=O)(=O)C1 (stereo not shown) [Pin1-3, 2-chloro-N-(sulfolan-3-yl)-N-neopentylacetamide]
IC50 [1]: 103 nM
Ki ([2]; FP assay, competition with fluorescein-labeled peptide, 250 nM GST-Pin1, read-out: Ki (apparent)): 110 nM
kinact ([2]; dose-dependent and time-dependent FP assay): 0.0005 s⁻¹
kinact/KI ([2]; dose-dependent and time-dependent FP assay, read-out: Kinact/Ki (apparent)): 29000 M⁻¹ s⁻¹
AUC % extrap. ([3]; intravenous 2 mg/kg, Avg. of 3 mice): 0.23%
AUC % extrap. [3, 8]: 0.36% and 0.17% and 0.18%
AUCINF obs. [3, 8]: 294012 ng·min/mL and 365536 ng·min/mL
AUClast [3, 8]: 293517 min*ng/ml and 17.4 hr*μM and 364891 min*ng/ml and 21.6 hr*μM
Cl obs. [3, 8]: 6.80 mL/min/kg and 5.47 mL/min/kg
Cmax [3, 8]: 1620 ng/mL and 2030 ng/mL
MRTINF obs. [3, 8]: 1.88 h and 1.82 h
T1/2 [3, 8]: 40.8 min and 43.2 min
VSS obs. [3, 8]: 0.77 L/kg and 0.60 L/kg
Cmax ([3]; intravenous 2 mg/kg, individual mice No. 1-3, 2 mg/kg, read-out: Cmax): 5.76 µM and 7.22 µM
AUC(0-t) [3, 9]: 6050 ng·h/mL and 21.5 µM·h
half-life [3, 9]: 45.6 min
AUC(0-inf) ([3]; male, C57Bl/6J, mouse, in vivo, iv, 2 mg/kg, Avg. of 3 mice, read-out: AUCINF obs. (converted)): 6070 ng·h/mL
clearance ([3]; male, C57Bl/6J, mouse, in vivo, iv, 2 mg/kg, Avg. of 3 mice, read-out: Cl obs.): 5.63 mL/min/kg
Cmax ([3]; male, C57Bl/6J, mouse, in vivo, iv, 2 mg/kg, Avg. of 3 mice, read-out: Cmax): 2090 ng/mL and 7.42 µM
MRT inf ([3]; male, C57Bl/6J, mouse, in vivo, iv, 2 mg/kg, Avg. of 3 mice, read-out: MRTINF obs.): 1.8 h
Vd ([3]; male, C57Bl/6J, mouse, in vivo, iv, 2 mg/kg, Avg. of 3 mice, read-out: VSS obs.): 0.61 L/kg
AUC(0-t) [3, 10]: 7190 ng·h/mL and 25.6 µM·h
half-life [3, 10]: 53.4 min
AUC(0-inf) ([3]; male, C57Bl/6J, mouse, in vivo, iv, 2 mg/kg, individual mice No. 1-3, read-out: AUCINF obs. (converted)): 7210 ng·h/mL
clearance ([3]; male, C57Bl/6J, mouse, in vivo, iv, 2 mg/kg, individual mice No. 1-3, read-out: Cl obs.): 4.62 mL/min/kg
Cmax ([3]; male, C57Bl/6J, mouse, in vivo, iv, 2 mg/kg, individual mice No. 1-3, read-out: Cmax): 2610 ng/mL and 9.28 µM
MRT inf ([3]; male, C57Bl/6J, mouse, in vivo, iv, 2 mg/kg, individual mice No. 1-3, read-out: MRTINF obs.): 1.7 h
Vd ([3]; male, C57Bl/6J, mouse, in vivo, iv, 2 mg/kg, individual mice No. 1-3, read-out: VSS obs.): 0.47 L/kg
Tmax ([3]; male, C57Bl/6J, mouse, in vivo, intravenous 2 mg/kg, individual mice No. 1-3): 30 min
Cell growth [4]: long-term inhibition
half-life [5]: 41 min
Cell viability / growth [6]: no considerable effect
KPC tumor growth [7]: inhibited KPC tumor growth
Survival (Kaplan-Meier) [7]: enhanced survival
